# Test results from publication PMC4583449, “Characterisation of (R)-2-(2-Fluorobiphenyl-4-yl)-N-(3-Methylpyridin-2-yl)Propanamide as a Dual Fatty Acid Amide Hydrolase: Cyclooxygenase Inhibitor” (PLoS ONE, 2015).
# Legend:
# [1] = target: T1, rat brain FAAH (Rattus norvegicus, UniProt P97612); assay: [3H]AEA hydrolysis in rat brain homogenates; format: biochemical; details: current authors, unpublished data; read-out: IC50 inhibition of [3H]AEA hydrolysis in rat brain homogenates
# T1 construct: the racemate was studied in rat brain homogenates, whereas mouse brain homogenates were used here; from tissue; host or cells: rat brain homogenates
# T1 sequence (P97612 1-579): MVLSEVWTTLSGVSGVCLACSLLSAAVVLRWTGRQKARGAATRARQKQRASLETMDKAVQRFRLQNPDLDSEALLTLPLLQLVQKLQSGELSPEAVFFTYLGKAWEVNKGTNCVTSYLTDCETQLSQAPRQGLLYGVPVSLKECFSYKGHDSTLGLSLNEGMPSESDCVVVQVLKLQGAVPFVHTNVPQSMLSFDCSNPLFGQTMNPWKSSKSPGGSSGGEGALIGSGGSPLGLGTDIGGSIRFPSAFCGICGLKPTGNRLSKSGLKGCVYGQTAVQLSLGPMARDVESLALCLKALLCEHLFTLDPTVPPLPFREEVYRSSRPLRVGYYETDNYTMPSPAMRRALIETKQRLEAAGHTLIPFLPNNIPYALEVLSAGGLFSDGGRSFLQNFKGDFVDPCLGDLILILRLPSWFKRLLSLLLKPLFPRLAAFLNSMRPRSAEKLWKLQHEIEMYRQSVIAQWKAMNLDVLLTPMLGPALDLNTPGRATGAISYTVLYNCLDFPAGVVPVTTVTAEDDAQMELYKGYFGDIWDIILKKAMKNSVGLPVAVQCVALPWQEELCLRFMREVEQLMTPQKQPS
# [2] = test system: RAW 264.7 cells; assay: Lipid profile (prostaglandins, 2-AG, AEA and related lipids) of RAW 264.7 cell extracts, UPLC-MS/MS; format: cell-based, mouse; details: 30 min
# [3] = test system: RAW 264.7 cells; assay: [3H]AEA hydrolysis by intact RAW 264.7 cells; format: cell-based, mouse; details: LPS + INF-γ-treated cells; 100 nM [3H]AEA, 60 min; URB597 1 μM, flurbiprofen and (R)-Flu-AM1 10 μM
# [4] = LPS + IFNγ 24 h, URB597 1 μM, flurbiprofen 10 μM, (R)-Flu-AM1 10 μM, median (range), n = 5–6
# [5] = Treatment None (unstimulated), URB597 1 μM, flurbiprofen 10 μM, (R)-Flu-AM1 10 μM, median (range), n = 5–6
smiles,measurement,setting,value
"Cc1cccnc1NC(=O)[C@H](C)c1ccc(-c2ccccc2)c(F)c1 [(R)-Flu-AM1, (R)-2-(2-Fluorobiphenyl-4-yl)-N-(3-Methylpyridin-2-yl)Propanamide]",IC50,[1],740 nM
same,Effect on basal and LPS + INF-γ-stimulated PGD2 and PGE2 production,[2]; 10 μM,almost complete inhibition
same,Effect upon linoleic acid-derived oxylipins,[2]; 10 μM,No significant effects
same,Effect on levels of 2-AG in the cell extracts,"[2]; 10 μM, unstimulated and LPS + INF-γ-treated",not affected
same,2-AG level relative to vehicle None median,[2]; [4],0.81 (0.64–0.98)
same,"9,10,13-TriHOME level relative to vehicle None median",[2]; [4],1.18 (0.90–1.49)
same,"9,10-DiHOME level relative to vehicle None median",[2]; [4],0.82 (0.65–1.09)
same,"9,12,13-TriHOME level relative to vehicle None median",[2]; [4],1.22 (0.79–1.60)
same,9-HODE level relative to vehicle None median,[2]; [4],1.06 (0.50–1.64)
same,11-HETE level relative to vehicle None median,[2]; [4],2.29 (0.92–7.87)
same,12(13)-EpOME level relative to vehicle None median,[2]; [4],1.02 (0.53–1.98)
same,12(S)-HEPE level relative to vehicle None median,[2]; [4],0.27 (0–0.74)
same,"12,13-DiHOME level relative to vehicle None median",[2]; [4],0.93 (0.76–1.04)
same,12-HETE level relative to vehicle None median,[2]; [4],0.32 (0.10–1.05)
same,13-HODE level relative to vehicle None median,[2]; [4],1.21 (0.55–1.75)
same,13-oxo-ODE level relative to vehicle None median,[2]; [4],1.49 (0.31–2.85)
same,15-HETE level relative to vehicle None median,[2]; [4],1.33 (0.67–3.37)
same,AEA level relative to vehicle None median,[2]; [4],1.01 (0.37–1.16)
same,LEA level relative to vehicle None median,[2]; [4],1.13 (0.33–1.60)
same,OEA level relative to vehicle None median,[2]; [4],1.03 (0.87–1.22)
same,PEA level relative to vehicle None median,[2]; [4],0.91 (0.49–1.15)
same,PGD2 level relative to vehicle None median,[2]; [4],3.14 (1.51–4.13)
same,SEA level relative to vehicle None median,[2]; [4],0.86 (0.65–1.11)
same,Effect on levels of AEA and related N-acylethanolamines in the cells,"[2]; LPS + INF-γ-treated, ionomycin (5 μM) treated cells, URB597 1 μM, flurbiprofen and (R)-Flu-AM1 10 μM",did not affect
same,2-AG level relative to vehicle None median,[2]; [5],0.94 (0.62–1.52)
same,"9,10,13-TriHOME level relative to vehicle None median",[2]; [5],1.04 (0.81–1.41)
same,"9,10-DiHOME level relative to vehicle None median",[2]; [5],1.05 (0.64–1.66)
same,"9,12,13-TriHOME level relative to vehicle None median",[2]; [5],1.08 (0.76–1.57)
same,9-HODE level relative to vehicle None median,[2]; [5],0.99 (0.66–2.11)
same,11-HETE level relative to vehicle None median,[2]; [5],0.55 (0.12–2.43)
same,12(13)-EpOME level relative to vehicle None median,[2]; [5],1.03 (0.51–5.45)
same,12(S)-HEPE level relative to vehicle None median,[2]; [5],0.90 (0.17–1.43)
same,"12,13-DiHOME level relative to vehicle None median",[2]; [5],1.12 (0.73–1.53)
same,12-HETE level relative to vehicle None median,[2]; [5],0.94 (0.27–1.82)
same,13-HODE level relative to vehicle None median,[2]; [5],0.97 (0.71–2.66)
same,13-oxo-ODE level relative to vehicle None median,[2]; [5],1.97(0.59–3.00)
same,15-HETE level relative to vehicle None median,[2]; [5],1.37 (0–2.72)
same,AEA level relative to vehicle None median,[2]; [5],0.65 (0.39–0.86)
same,LEA level relative to vehicle None median,[2]; [5],1.07 (0.21–1.26)
same,OEA level relative to vehicle None median,[2]; [5],1.01 (0.79–1.11)
same,PEA level relative to vehicle None median,[2]; [5],0.89 (0.74–1.06)
same,PGD2 level relative to vehicle None median,[2]; [5],0 (0–0.25)
same,PGE2 level relative to vehicle None median,[2]; [5],0 (0–0.25)
same,SEA level relative to vehicle None median,[2]; [5],0.90 (0.52–1.02)
same,Effect on hydrolysis of exogenous [3H]AEA by intact cells,[3],"would not be expected, and this was found to be the case"
